From patent publication US20260028390A1, “ALPHA1-ANTITRYPSIN FOR USE IN THE TREATMENT OF DISEASES OR DISORDERS OF THE NERVOUS SYSTEM SUCH AS CHRONIC INFLAMMATORY DEMYELINATING POLYNEUROPATHY” (Ageronix SA, priority 2022, published 2026)
Values joined by “and” are separate entries in the source; they are usually repeats but may differ in a detail not shown here. Equal entries are not always repeated.

Tests used:
[1] = tested on: CMT1A mice B6.Cg-Tg(PMP22)C3Fbas/J; assay: Rotarod latency to fall, CMT mice treated with AAT 180 mg/kg/day sc; assay type: in vivo, mouse
Human Schwann cells = assay: TNFα-induced Schwann cell activation, target gene expression by qPCR; assay type: cell-based; settings: AAT 50 μM pre-treatment 24 hours, TNFα 10 ng/mL 24 hours
Experimental: Human Schwann cells (P10351, Innoprot) were seeded in 12 well plates at 120000 cells per well in DMEM. Cells were pre-treated with either buffer (controls) or AAT (50 μM) for 24 hours before stimulation by TNFα (10 ng/mL). The plates were then incubated at 37° C. for 24 hours. The RNA was extracted and selected target gene expression was measured by qPCR.
The genes evaluated for their regulation included the NF-κB early gene response NFKBIA, as well as the TNFα and TNFR1 genes. Expression of the gene coding for the IL-6 pro-inflammatory cytokine was also evaluated.

SH-SY5Y cells = assay: Cell viability assay (CCK-8) of SH-SY5Y treated with 6-OHDA; assay type: cell-based; settings: 6-OHDA combined with AAT 25 μM, CCK-8 absorbance 450 nm
Experimental: SH-SY5Y cells, which are commonly used to model neurodegenerative disorders, were used to produce an in vitro Parkinson's model (Que R, et al., 2021, Front. Immunol. 12). Cells were cultured in DMEMF12/Glutamax supplemented with 10% FBS.
Cells were treated for 24 hours with the neurotoxin 6-hydroxydopamine (6-OHDA, Sigma Aldrich 162957) at 50, 100 μM concentrations alone or in combination with AAT 25 μM (AAT plasma derived, Sigma Aldrich batch A9024). Cells treated with AAT alone or in combination with 6-OHDA for 24 hours, were then incubated with fresh AAT for additional 24 hours. Control cells were treated with PBS.
At day 0 cells were plated in equally number in 24-well plate, the day after they were treated as described above, and final total cell count was performed at day 4 of culture (cell growth). Cell viability was assessed with Cell Counting Kit-8 (CCK-8; Sigma Aldrich 96992). After treatments, cells were incubated with 10 μl of CCK-8 solution for 2 hours in the incubator. Absorbance was measured at 450 nm using SpectraMax iD3 Microplate Reader. Experiments were performed in triplicate.

[2] = baseline (6 weeks old), CMT + hAAT, individual animal

alpha1-antitrypsin (AAT) protein
rotarod latency to fall vs CMT mice not treated with AAT ([1]; CMT mice, AAT 90 mg/kg sc twice a day, 8 to 10 weeks of age, end of treatment): significant increase
Rotarod latency, group Mean ([1]; baseline (6 weeks old), CMT + hAAT, 8 animals): 71.46 s
Rotarod latency, Mean/animal [1, 2]: 53.43 s and 52.98 s and 66.74 s and 56.96 s and 66.75 s and 65.56 s and 106.66 s and 102.61 s
Rotarod latency, set 1 [1, 2]: 53.47 s and 57.35 s and 69.94 s and 62.11 s and 65.03 s and 66.86 s and 110.28 s and 93.16 s
Rotarod latency, set 2 [1, 2]: 57.11 s and 51.61 s and 67.40 s and 54.79 s and 72.92 s and 68.48 s and 109.55 s and 105.36 s
Rotarod latency, set 3 [1, 2]: 49.72 s and 49.96 s and 62.87 s and 53.98 s and 62.30 s and 61.35 s and 100.14 s and 109.32 s
NF-κb pathway transcripts (Human Schwann cells): downregulated
expression of genes modulated by TNF-induced oxidative stress response (Human Schwann cells): inhibited
cell count and viability compared to 6-OHDA treatment alone (SH-SY5Y cells): significantly enhanced
